Results taken from patent US20250368628A1, “METHODS AND COMPOUNDS FOR MODULATING INHERITED GENETIC DISEASES” (Design Therapeutics, Inc., priority 2022, published 2025).
pEC50: −log10 of the molar value.

System: Myotonic Dystrophy 1 affected patient fibroblasts (Coriel GM04602; 1600 CTG repeats)
Assay: DM1 foci reduction assay (EC50 assay; CAG10-Cy3 FISH, foci per nucleus)
Type: cell-based
Settings: Homo sapiens, Fibroblast; DM1 patient fibroblasts, 48 h treatment, foci per nucleus; read-out: DM1 EC50, 48 h
Procedure, shortened: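 GM04602 DM1 patient fibroblasts (1600 CTG repeats) seeded 24 h, then treated 48 h at 37 °C with an 8-point 1:3 dose series from 3 μM. Cells PFA-fixed, ethanol-permeabilized and hybridized overnight with 5 nM CAG10-Cy3 probe, DAPI counterstained. Imaged at 20×, 4 fields per well, as average foci per nucleus.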

Compound | pEC50
Cn1cc(NC(=O)c2nc(NC(=O)CCNC(=O)c3cc(NC(=O)c4nccn4C)cn3C)cn2C)cc1C(=O)NCCCC(=O)Nc1cn(C)c(C(=O)NCCC(=O)Nc2cc(C(=O)Nc3cn(C)c(C(=O)NCCOCCOCCOc4cccc(C(=O)O)c4)n3)n(C)c2)n1 [Compound B-214] | 6.00 to 6.30
CN(CCCCCc1cccc(C(=O)O)c1)CCCNC(=O)c1nc(NC(=O)c2cc(NC(=O)CCNC(=O)c3nc(NC(=O)CCCNC(=O)c4cc(NC(=O)c5nc(NC(=O)CCNC(=O)c6cc(NC(=O)c7nccn7C)cn6C)cn5C)cn4C)cn3C)cn2C)cn1C [Compound B-215] | 6.30 to 7.00
Cn1cc(NC(=O)c2nc(NC(=O)CCNC(=O)c3cc(NC(=O)c4nccn4C)cn3C)cn2C)cc1C(=O)NCCCC(=O)Nc1cn(C)c(C(=O)NCCC(=O)Nc2cc(C(=O)Nc3cn(C)c(C(=O)NCCOCCOCCOc4cncc(C(=O)O)c4)n3)n(C)c2)n1 [Compound B-216] | < 6.00
Cn1cc(NC(=O)c2nc(NC(=O)CCNC(=O)c3cc(NC(=O)c4nccn4C)cn3C)cn2C)cc1C(=O)NCCCC(=O)Nc1cn(C)c(C(=O)NCCC(=O)Nc2cc(C(=O)Nc3cn(C)c(C(=O)NCCCCNc4cccc(C(=O)O)c4)n3)n(C)c2)n1 [Compound B-218] | 6.30 to 7.00
CCN(CC)CCCC[C@H](NC(=O)c1ccccc1)C(=O)NCCOCCOCCOCCOCCOCCNC(=O)c1nc(NC(=O)c2cc(NC(=O)CCNC(=O)c3nc(NC(=O)CCCNC(=O)c4cc(NC(=O)c5nc(NC(=O)CCNC(=O)c6cc(NC(=O)c7nccn7C)cn6C)cn5C)cn4C)cn3C)cn2C)cn1C [Compound B-219] | 6.00 to 6.30
CCN(CC)CCCC[C@H](NC(=O)c1cccc(C(=O)O)c1)C(=O)NCCOCCOCCOCCOCCOCCNC(=O)c1nc(NC(=O)c2cc(NC(=O)CCNC(=O)c3nc(NC(=O)CCCNC(=O)c4cc(NC(=O)c5nc(NC(=O)CCNC(=O)c6cc(NC(=O)c7nccn7C)cn6C)cn5C)cn4C)cn3C)cn2C)cn1C [Compound B-220] | < 6.00
CCN(CC)CCCC[C@H](NC(=O)c1cccc(C(=O)O)c1)C(=O)NCCOCCOCCOCCNC(=O)c1nc(NC(=O)c2cc(NC(=O)CCNC(=O)c3nc(NC(=O)CCCNC(=O)c4cc(NC(=O)c5nc(NC(=O)CCNC(=O)c6cc(NC(=O)c7nccn7C)cn6C)cn5C)cn4C)cn3C)cn2C)cn1C [Compound B-221] | < 6.00
CCN(CC)CCCC[C@H](NC(=O)c1cccc(C(=O)O)c1)C(=O)NCCOCCOCCOCCOCCOCCNC(=O)CCNC(=O)c1nc(NC(=O)c2cc(NC(=O)CCNC(=O)c3nc(NC(=O)CCCNC(=O)c4cc(NC(=O)c5nc(NC(=O)CCNC(=O)c6cc(NC(=O)c7nccn7C)cn6C)cn5C)cn4C)cn3C)cn2C)cn1C [Compound B-222] | 6.00 to 6.30
CCN(CC)CCCC[C@H](NC(=O)c1cccc(C(=O)O)c1)C(=O)NCCOCCOCCOCCNC(=O)CCNC(=O)c1nc(NC(=O)c2cc(NC(=O)CCNC(=O)c3nc(NC(=O)CCCNC(=O)c4cc(NC(=O)c5nc(NC(=O)CCNC(=O)c6cc(NC(=O)c7nccn7C)cn6C)cn5C)cn4C)cn3C)cn2C)cn1C [Compound B-223] | < 6.00
Cn1cc(NC(=O)c2nc(NC(=O)CCNC(=O)c3cc(NC(=O)c4nccn4C)cn3C)cn2C)cc1C(=O)NCCCC(=O)Nc1cn(C)c(C(=O)NCCC(=O)Nc2cc(C(=O)Nc3cn(C)c(C(=O)NCCC(=O)N4CCC(C#CC#CC5CCN(CCCNC(=O)c6cccc(C(=O)O)c6)CC5)CC4)n3)n(C)c2)n1 [Compound B-225] | 6.30 to 7.00
CCCNC(=O)c1nc(NC(=O)c2cc(NC(=O)CCNC(=O)c3nc(NC(=O)CCCNC(=O)c4cc(NC(=O)c5nc(NC(=O)CCNC(=O)c6cc(NC(=O)c7nccn7C)cn6C)cn5C)cn4CCCCCCN=[N+]=[N-])cn3C)cn2C)cn1C [Compound B-231] | 6.30 to 7.00
CCCNC(=O)CCNC(=O)c1nc(NC(=O)c2cc(NC(=O)CCNC(=O)c3nc(NC(=O)CCCNC(=O)c4cc(NC(=O)c5nc(NC(=O)CCNC(=O)c6cc(NC(=O)c7nccn7C)cn6C)cn5C)cn4CCCCCCNC(=O)CCOCCOCCOCCOCCOCCOC)cn3C)cn2C)cn1C [Compound B-238] | 6.30 to 7.00
